For 32 compounds, Ki results are on record in US9815796B2 (Merck Sharp & Dohme Corp., priority 2013, dated 2017).

Bounds are passed on as bounds.

Sequence of Rhesus PDE2A3 (B3VTJ2 1-941): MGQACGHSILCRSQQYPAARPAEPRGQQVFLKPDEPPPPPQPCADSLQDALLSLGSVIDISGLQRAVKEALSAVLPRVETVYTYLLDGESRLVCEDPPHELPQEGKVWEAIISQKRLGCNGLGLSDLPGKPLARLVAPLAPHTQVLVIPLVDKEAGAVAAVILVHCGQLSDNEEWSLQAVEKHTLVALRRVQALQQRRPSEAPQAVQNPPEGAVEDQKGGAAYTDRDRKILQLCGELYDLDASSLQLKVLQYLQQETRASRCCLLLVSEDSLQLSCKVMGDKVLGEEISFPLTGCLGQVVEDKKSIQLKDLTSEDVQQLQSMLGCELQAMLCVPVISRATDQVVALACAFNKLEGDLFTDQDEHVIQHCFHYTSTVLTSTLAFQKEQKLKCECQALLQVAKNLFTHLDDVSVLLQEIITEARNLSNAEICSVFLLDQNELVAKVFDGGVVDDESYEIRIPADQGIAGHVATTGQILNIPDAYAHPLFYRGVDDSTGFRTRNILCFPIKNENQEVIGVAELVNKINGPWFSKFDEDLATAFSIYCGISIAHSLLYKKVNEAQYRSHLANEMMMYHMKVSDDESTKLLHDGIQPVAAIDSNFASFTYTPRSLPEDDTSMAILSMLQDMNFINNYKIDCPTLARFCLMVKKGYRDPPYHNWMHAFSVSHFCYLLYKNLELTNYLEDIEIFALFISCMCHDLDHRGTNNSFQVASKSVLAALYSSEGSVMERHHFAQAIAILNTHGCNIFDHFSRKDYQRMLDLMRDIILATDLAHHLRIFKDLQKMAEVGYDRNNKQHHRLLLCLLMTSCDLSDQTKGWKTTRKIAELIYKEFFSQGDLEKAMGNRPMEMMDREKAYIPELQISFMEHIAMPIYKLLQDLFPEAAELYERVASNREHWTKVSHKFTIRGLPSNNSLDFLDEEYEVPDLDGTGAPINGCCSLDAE

One assay concerns the target Rhesus PDE2A3 (Macaca mulatta, UniProt B3VTJ2). Description: PDE2 fluorescence polarization (IMAP FP) inhibition assay, rhesus enzyme. It is filed as biochemical, rhesus macaque. The note with it: Rhesus PDE2, Lab A; read-out: Rhesus PDE2 Ki (nM) - Lab A. A digest of the protocol: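 IMAP FP (mP from parallel and perpendicular fluorescence against substrate-only control) was read ≥1 h after adding binding reagent. The preceding 60 min room-temperature reaction contained FAM-cAMP (50 nM) and cGMP (1 uM) in pH 7.2 Tris buffer with MgCl2 and DTT. Enzyme was supernatant of sonicated AD293 cells expressing rhesus PDE2A3; compounds were 3-fold titrated, DMSO 1% final.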
As usually defined, the Ki is a measure of affinity in units of concentration, obtained from inhibition or displacement. In the case of `C[C@@H](NC(=O)c1cc(=O)[nH]c(C(C)(C)n2cccn2)n1)c1ccc(C(F)(F)F)cc1` [Example 7, 2-[1-methyl-1-(1H-pyrazol-1-yl)ethyl]-6-oxo-N-{(1R)-1-[4-(trifluoromethyl)phenyl]ethyl}-1,6-dihydropyrimidine-4-carboxamide], the Ki was found to be 2780 nM. `CN(Cc1ccc(C(F)(F)F)cc1)C(=O)c1cc(=O)[nH]c(-c2ccccc2)n1` [Example 345, N-methyl-6-oxo-2-phenyl-N-[4-(trifluoromethyl)benzyl]-1,6-dihydropyrimidine-4-carboxamide]: the Ki was 8340 nM.

As to `CC(NC(=O)c1cc(=O)[nH]c(-c2ccccc2)n1)c1ccc(C#N)cc1` (centres unmarked) [Example 370, N-[1-(4-cyanophenyl)ethyl]-6-oxo-2-phenyl-1,6-dihydropyrimidine-4-carboxamide], the Ki came out at 334 nM. On to `COc1cc(-c2ccc([C@@H](C)NC(=O)c3cc(=O)[nH]c(C)n3)cc2)ccn1` [Example 317, (R)—N-(1-(4-(2-methoxypyridin-4-yl)phenyl)ethyl)-2-methyl-6-oxo-1,6-dihydropyrimidine-4-carboxamide], for which the Ki is 1810 nM.

Take `Cc1nc(C(=O)NC(c2ccccc2)c2ccc(C(F)(F)F)cc2)cc(=O)[nH]1` (centres unmarked) [Example 34, 2-methyl-6-oxo-N-{phenyl[4-(trifluoromethyl)phenyl]methyl}-1,6-dihydropyrimidine-4-carboxamide]: the Ki stood at 1420 nM. For `Cc1nc(C(=O)N[C@@H](C)c2cccc3ccccc23)cc(=O)[nH]1` [Example 302, 2-methyl-N-[(3S)-1-naphthalen-1-ylethyl]-6-oxo-1,6-dihydropyrimidine-4-carboxamide], the Ki was 51400 nM. On to `COc1cc(C(C)NC(=O)c2cc(=O)[nH]c(C)n2)ccc1C(F)(F)F` (centres unmarked) [Example 27, N-{1-[3-methoxy-4-(trifluoromethyl)phenyl]ethyl}-2-methyl-6-oxo-1,6-dihydropyrimidine-4-carboxamide], for which the Ki came to 1160 nM. The same measure, in the same setting: then `COCc1nc(C(=O)NC(CO)c2ccc(C(F)(F)F)cc2)cc(=O)[nH]1` (centres unmarked) [Example 112, N-{2-hydroxy-1-[4-(trifluoromethyl)phenyl]ethyl}-2-(methoxymethyl)-6-oxo-1,6-dihydropyrimidine-4-carboxamide], with 1110 nM; and `CC(NC(=O)c1cc(=O)[nH]c(-c2ccccc2)n1)c1ncc(C(F)(F)F)cn1` (centres unmarked) [Example 170, 6-oxo-2-phenyl-N-{1-[5-(trifluoromethyl)pyrimidin-2-yl]ethyl}-1,6-dihydropyrimidine-4-carboxamide], with 2340 nM.

Consider `COc1cc(C(C)NC(=O)c2cc(=O)[nH]c(-c3ncccn3)n2)ccc1C(F)(F)F` (centres unmarked) [Example 104, N-{1-[3-methoxy-4-(trifluoromethyl)phenyl]ethyl}-6-oxo-1,6-dihydro-2,2′-bipyrimidine-4-carboxamide], for which the Ki was found to be 524 nM.

With `CC(NC(=O)c1cc(=O)[nH]c(-c2ccccc2)n1)c1cccc(Cl)c1` (centres unmarked) [Example 368, N-[1-(3-chlorophenyl)ethyl]-6-oxo-2-phenyl-1,6-dihydropyrimidine-4-carboxamide], the Ki was roughly 880 nM. Same read-out and setting: next, `Cc1nc(C(=O)N[C@H](c2ccc(C(F)(F)F)cc2)C(C)C)cc(=O)[nH]1` [Example 315, 2-methyl-N-{(1S)-2-methyl-1-[4-(trifluoromethyl)phenyl]propyl}-6-oxo-1,6-dihydropyrimidine-4-carboxamide]: 698 nM; `Cc1cc(C(F)(F)F)ccc1C(C)NC(=O)c1cc(=O)[nH]c(-c2ncccn2)n1` (centres unmarked) [Example 90, N-{1-[2-methyl-4-(trifluoromethyl)phenyl]ethyl}-6-oxo-1,6-dihydro-2,2′-bipyrimidine-4-carboxamide]: 732 nM; `O=C(NC(c1ccccc1)c1ccc(C(F)(F)F)cc1)c1cc(=O)[nH]c(C2CC2)n1` (centres unmarked) [Example 196, 2-cyclopropyl-6-oxo-N-{phenyl[4-(trifluoromethyl)phenyl]methyl}-1,6-dihydropyrimidine-4-carboxamide]: 915 nM. On to `C[C@@H](NC(=O)c1cc(=O)[nH]c(C2CC2)n1)c1ccc(C(F)(F)F)c2ccccc12` [Example 235, 2-cyclopropyl-6-oxo-N-{(1R)-1-[4-(trifluoromethyl)naphthalen-1-yl]ethyl}-1,6-dihydropyrimidine-4-carboxamide], for which the Ki worked out at 274 nM. Same read-out and setting: next, `CC(NC(=O)c1cc(=O)[nH]c(-c2ccccc2)n1)c1ccc2c(c1)OCO2` (centres unmarked) [Example 376, N-[1-(1,3-benzodioxol-5-yl)ethyl]-6-oxo-2-phenyl-1,6-dihydropyrimidine-4-carboxamide]: roughly 672 nM. Still for that read-out and setting: then `COc1cc(C(F)(F)F)ccc1[C@@H](C)NC(=O)c1cc(=O)[nH]c(-c2ncccn2)n1` [Example 109, N-{(1R)-1-[2-methoxy-4-(trifluoromethyl)phenyl]ethyl}-6-oxo-1,6-dihydro-2,2′-bipyrimidine-4-carboxamide], with 342 nM; and `Cc1nc(C(=O)N[C@H](C)c2ccc(-c3ccc(C(F)(F)F)nc3)cc2)cc(=O)[nH]1` [Example 321, 2-methyl-6-oxo-N-[(1R)-1-{4-[6-(trifluoromethyl)pyridin-3-yl]phenyl}ethyl]-1,6-dihydropyrimidine-4-carboxamide], with 911 nM; and `Cc1nc(C(=O)NCc2ccc(C(F)(F)F)cc2Cl)cc(=O)[nH]1` [Example 24, N-[2-chloro-4-(trifluoromethyl)benzyl]-2-methyl-6-oxo-1,6-dihydropyrimidine-4-carboxamide], with 3630 nM.

The assay is the same for the next values; noted with them: Rhesus PDE2, Lab B; read-out: Rhesus PDE2 Ki (nM) - Lab B.
For `CC(NC(=O)c1cc(=O)[nH]c(-c2ccccc2)n1)c1ccc(C#N)cc1` (centres unmarked) [Example 370, N-[1-(4-cyanophenyl)ethyl]-6-oxo-2-phenyl-1,6-dihydropyrimidine-4-carboxamide], the Ki worked out at 533 nM. As for `CC(NC(=O)c1cc(=O)[nH]c(-c2ccccc2)n1)c1ccc(O)cc1` (centres unmarked) [Example 369, N-[1-(4-hydroxyphenyl)ethyl]-6-oxo-2-phenyl-1,6-dihydropyrimidine-4-carboxamide], the Ki worked out at 8780 nM. Still for that read-out and setting: next, `CCOC(=O)c1ccc([C@@H](C)NC(=O)c2cc(=O)[nH]c(-c3ncccn3)n2)cc1` [Example 432, ethyl 4-[(1R)-1-{[(6-oxo-1,6-dihydro-2,2′-bipyrimidin-4-yl)carbonyl]amino}ethyl]benzoate]: greater than 2970 nM; `CC(NC(=O)c1cc(=O)[nH]c(-c2ccccc2)n1)c1ccc(S(C)(=O)=O)cc1` (centres unmarked) [Example 382, N-{1-[4-(methylsulfonyl)phenyl]ethyl}-6-oxo-2-phenyl-1,6-dihydropyrimidine-4-carboxamide]: 3120 nM. With `COc1ccc(C(C)(C)c2nc(C(=O)N[C@@H](c3ccc(C(F)(F)F)c(F)c3)C3CC3)cc(=O)[nH]2)cc1` [Example 499, N-{(R)-cyclopropyl[3-fluoro-4-(trifluoromethyl)phenyl]methyl}-2-[1-(4-methoxyphenyl)-1-methylethyl]-6-oxo-1,6-dihydropyrimidine-4-carboxamide], the Ki came out at 115 nM. The same measure, in the same setting: then `CC1(C(NC(=O)c2cc(=O)[nH]c(C3CC3)n2)c2ccc(SC(F)(F)F)c(F)c2)CC1` (single isomer, unassigned) [Example 705, (S)- or (R)-2-cyclopropyl-N-((3-fluoro-4-((trifluoromethyl)thio)phenyl)(1-methylcyclopropyl)methyl)-6-oxo-1,6-dihydropyrimidine-4-carboxamide], with 1070 nM; and `Cc1nc(C(=O)NC(c2ccc(SC(F)(F)F)c(F)c2)C2(C)CC2)cc(=O)[nH]1` (single isomer, unassigned) [Example 703, (S)- or (R)-N-((3-fluoro-4-((trifluoromethyl)thio)phenyl)(1-methylcyclopropyl)methyl)-2-methyl-6-oxo-1,6-dihydropyrimidine-4-carboxamide], with greater than 2970 nM.

On to `COc1ccc(C(NC(=O)c2cc(=O)[nH]c(-c3ccccc3)n2)c2ccc(C(F)(F)F)cc2)cc1` (centres unmarked) [Example 381, N-{(4-methoxyphenyl)[4-(trifluoromethyl)phenyl]methyl}-6-oxo-2-phenyl-1,6-dihydropyrimidine-4-carboxamide], for which the Ki is roughly 20400 nM. The same measure, in the same setting: next, `CC(NC(=O)c1cc(=O)[nH]c(-c2ccccc2)n1)c1cccc(Cl)c1` (centres unmarked) [Example 368, N-[1-(3-chlorophenyl)ethyl]-6-oxo-2-phenyl-1,6-dihydropyrimidine-4-carboxamide]: 1100 nM; `CC(C)(NC(=O)c1cc(=O)[nH]c(-c2ccccc2)n1)c1ccc(S(F)(F)(F)(F)F)cc1` [Example 679, N-{1-methyl-1-[4-(pentafluoro-λ^6-sulfanyl)phenyl]ethyl}-6-oxo-2-phenyl-1,6-dihydropyrimidine-4-carboxamide]: 90 nM; `C[C@@H](NC(=O)c1cc(=O)[nH]c(-c2nccs2)n1)c1ccc(C(F)(F)F)cc1` [Example 674, (R)-6-oxo-2-(thiazol-2-yl)-N-(1-(4-(trifluoromethyl)phenyl)ethyl)-1,6-dihydropyrimidine-4-carboxamide]: 583 nM.

For the compound `C[C@H](O)[C@@H](NC(=O)c1cc(=O)[nH]c(-c2ncccn2)n1)c1ccc(C(F)(F)F)cc1` [Example 430, N-{(1S,2)S-2-hydroxy-1-[4-(trifluoromethyl)phenyl]propyl}-6-oxo-1,6-dihydro-2,2′-bipyrimidine-4-carboxamide], the Ki is greater than 2970 nM. As to `CCOC(=O)c1ccc([C@H](C)NC(=O)c2cc(=O)[nH]c(-c3ncccn3)n2)cc1` [Example 431, ethyl 4-[(1S)-1-{[(6-oxo-1,6-dihydro-2,2′-bipyrimidin-4-yl)carbonyl]amino}ethyl]benzoate], the Ki is roughly 2890 nM.

As to `O=C(N[C@@H]1CCCc2cc(C(F)(F)F)ccc21)c1cc(=O)[nH]c(-c2ncccn2)n1` [Example 433, 6-oxo-N-[(1R)-6-(trifluoromethyl)-1,2,3,4-tetrahydronaphthalen-1-yl]-1,6-dihydro-2,2′-bipyrimidine-4-carboxamide], the Ki was roughly 1430 nM.

As to `CC(NC(=O)c1cc(=O)[nH]c(-c2ccccc2)n1)c1cccc(C(F)(F)F)c1` (centres unmarked) [Example 395, 6-oxo-2-phenyl-N-{1-[3-(trifluoromethyl)phenyl]ethyl}-1,6-dihydropyrimidine-4-carboxamide], the Ki was 2050 nM.

As for `CC(NC(=O)c1cc(=O)[nH]c(-c2ccccc2)n1)c1ccc2c(c1)OCO2` (centres unmarked) [Example 376, N-[1-(1,3-benzodioxol-5-yl)ethyl]-6-oxo-2-phenyl-1,6-dihydropyrimidine-4-carboxamide], the Ki turned out to be 891 nM.
